From paper PMC10861593, “Kisspeptin-10 binding to Gpr54 in osteoclasts prevents bone loss by activating Dusp18-mediated dephosphorylation of Src” (Nature Communications, 2024)
Entries after “also recorded” stand apart in the source; their conditions may differ.

Test system: giant cell tumor of bone (GCT) cells
Assay: TRAP assay of osteoclast formation in human giant cell tumor of bone (GCT) cells
Format: cell-based
Conditions: Kp-10 5–7 days
Procedure: BMMs (5 × 10^3 cells/well) were seeded into 96-well plates with a bone slice and incubated with M-CSF (10 ng/ml) and RANKL (50 ng/ml) with or without Kp-10, and the culture medium was changed every other day for 5–7 days. Osteoclasts were fixed and stained by phalloidin and DAPI. “Pits” on bone slice after osteoclast resorption were fixed with 4% Glutaraldehyde and stained with 1% toluidine blue, and pit depth was examined by laser-scanning confocal microscopy. For primary cultures of giant-cell tumor of bone (GCTB) cells, the use of all patient-derived tumor specimens was approved by the Institutional Review Board and the research ethics committee of Shanghai Changzheng Hospital, which appeared in the proceedings of the meeting of the Ethics Committee on 18 November 2014 (report number: 2014090). Informed consent obtained from all tissue donors was written. The GCTB cells were isolated from tumor samples derived from tumor resections in Shanghai Changzheng Hospital, 1 × 10^6 GCTB cells were seeded in a 24-well plate. Cells were stimulated with indicated doses of Kp-10 for 5–7 days. The medium was changed every 2 days. Osteoclasts were fixed and stained using the TRAP-staining kit (Sigma-Aldrich, 387A-1KT).

Kisspeptin-10 [Kp-10]
osteoclast formation: suppressed osteoclast formation; also recorded: dose-dependently suppressed
